# Assay results published in patent US4117117A, “Tridecapetide having gastrin effect” (Max Planck-Gesellschaft zur Forderung der Wissenschaften, priority 1976, dated 1978).
# Assays:
# [1] = test system: secretion activity of the stomach and of the pancreas; test: gastrin activity (stimulation of the secretion activity of the stomach and of the pancreas)
# [2] = stability compared to natural minigastrin; conditions: as compared to the natural minigastrin
substance,measurement,setting,value
L-leucyl-L-glutamyl-L-glutamyl-L-glutamyl-L-glutamyl-L-glutamyl-L-ananyl-L-tyrosyl-glycyl-L-tryptophyl-L-leucyl-L-asparagyl-L-phenylalanineamide [11-leucine-minigastrin],gastrin activity,[1],satisfactory
same,stimulation of the secretion activity of the stomach and of the pancreas,[1]; just like naturally-occurring gastrin,causes stimulation
same,stability,[2],improved stability
